Source: patent publication US6468763B1, “Optical detection of transmembrane potential changes” (Caliper Technologies Corp., priority 1999, dated 2002)

Test system: CHO cells
Experiment: Voltage dependent quenching of WGA-F1 fluorescence in response to changes in the potassium diffusion potential
Assay type: cell-based, Chinese hamster
Settings: excitation 475 nm
Method: Crystal violet was purchased from Fischer Scientific. Fluorescein labeled wheat germ agglutinin (WGA-F1) was purchased from Sigma Chemical. Valinomycin was purchased from Sigma Chemical Chinese hamster ovary cells (CHO) were grown in Ham's F12 media (Irvine Scientific) with 10% fetal bovine serum and 1% penicillin/streptomycin. Adherent cells were harvested using phosphate buffered saline with 0.5 mM EDTA (Irvine Scientific). Cells were washed in Hank's buffered saline solution (HBSS) containing 20 mM Hepes at pH 7.2. Cells suspended in HBSS at a concentration of 10^6 cells/ml were stained with 2 μg/ml WGA-F1 and 40 nM crystal violet for 15 minutes at room temperature. The cells were washed with HBSS and suspended in HBSS containing 1 μM sulforhodamine 101 (Sigma Chemical). Sulforhodamine 101 was used as a voltage insensitive volume marker to account for possible dilution artifacts. […] Fluorescence measurements on cell suspensions were made at room temperature using a FluoroMax-2 fluorometer (Spex). […]
The cationic quencher will redistribute from the intracellular side of the plasma membrane to the extracellular side as the cell is depolarized. […] The fluorescein fluorescence in the depolarized cells is decreased by 20% compared to the hyperpolarized cells. No difference is seen in sulforhodamine 101 fluorescence.
Octadecyl rhodamine B (R18) was purchased from Molecular Probes. […] Fluorescence measurements on cell suspensions were made at room temperature using a FluoroMax-2 fluorometer (Spex). […]
The cationic quencher redistributes from the intracellular side of the plasma membrane to the extracellular side as the cell is depolarized. […] The fluorescein fluorescence in the depolarized cells is decreased by 3% and the rhodamine fluorescence is increased by 2% compared to the hyperpolarized cells. The observed changes in fluorescein and R18 fluorescence are consistent with the translocation-dependent changes in fluorescence resonance energy transfer.

[1] = CHO cells stained with 2 μg/ml WGA-F1 and 500 nM R18, high potassium vs high sodium buffer, valinomycin

Row | Structure (SMILES) | decrease of fluorescein fluorescence in the depolarized cells compared to the hyperpolarized cells [1] | increase of rhodamine fluorescence (sensitized emission) in the depolarized cells compared to the hyperpolarized cells [1] | decrease of fluorescein fluorescence in the depolarized cells compared to the hyperpolarized cells (CHO cells stained with 2 μg/ml WGA-F1 and 40 nM crystal violet, high potassium buffer (126 mM K+) vs high sodium buffer (6 mM K+), 5 μM valinomycin)
1 | CCCCCCCCCCCCCCCCCCOC(=O)c1ccccc1-c1c2ccc(=[N+](CC)CC)cc-2oc2cc(N(CC)CC)ccc12.[Cl-] [R18, Octadecyl rhodamine B] | 3% | 2% | 
2 | CN(C)c1ccc(C(=C2C=CC(=[N+](C)C)C=C2)c2ccc(N(C)C)cc2)cc1 [crystal violet] |  |  | 20%
